# In article PMC6112376, “Comprehensive Analyses and Prioritization of Tox21 10K Chemicals Affecting Mitochondrial Function by in-Depth Mechanistic Studies” (Environmental Health Perspectives, 2018):
# Where two headings read alike, the source gives them in different places.
# Experiments:
# HepG2 cells [1] = conditions: cited from earlier work
# [2] = system: Caenorhabditis elegans (Bristol N2); test: C. elegans larval development and growth assay
# hNSC = test: MMP assay in human neural stem cells (hNSC); format: cell-based; conditions: Homo sapiens, Neural stem cell; 1 h treatment; fresh re-sourced stocks; mean±SD of three experiments; read-out: hNSC IC50 (MMP)
# [3] = system: HeLa cells expressing YFP-Parkin; test: Parkin translocation assay; format: cell-based, human
# rat primary hepatocytes [4] = test: MMP assay in rat primary hepatocytes; conditions: for Rat hepatocytes (efficacy) (MMP): % of positive control, mean±SD of three experiments; for IC50: Rattus norvegicus, Hepatocyte; for MMP assays efficacy (%) Rat Hepatocytes: mean ± SD of three experiments
# [5] = system: isolated rat liver mitochondria; test: Oxygen consumption, Clark-type oxygen electrode; format: biochemical
# [6] = system: Caenorhabditis elegans strain PE255; test: In vivo C. elegans ATP status assay; conditions: for minimal effective concentration: Caenorhabditis elegans, read-out: LEC LUM: lowest effect concentration for luminescence, a measure of nematode ATP content
# [7] = system: Nrf2/ARE (ARE-bla HepG2 cells); test: ARE β-lactamase reporter gene assay; format: cell-based, human; conditions: for EC50: Homo sapiens, read-out: ARE (HepG2) EC50
# HepG2 cells [8] = test: cells; conditions: Homo sapiens; for Emax: HepG2, read-out: MMP assays efficacy (%) HepG2
# HepG2 cells [9] = test: Intracellular ATP content (cell viability) assay; format: cell-based, human; conditions: for IC50: Homo sapiens, HepG2
# HepG2 cells [10] = test: ROS-Glo hydrogen peroxide (ROS) assay; format: cell-based, human; conditions: Homo sapiens, read-out: ROS (HepG2) EC50
# [11] = system: p53 (p53-bla HCT-116 cells); test: p53 β-lactamase reporter gene assay; format: cell-based, human
# HepG2 cells [12] = system: HepG2 cells
# rat primary hepatocytes [13] = system: rat primary hepatocytes
# [14] = read-out: MMP assays IC50 (µM), qHTS-HepG2
# [15] = HeLa cells stably expressing YFP-Parkin, treated for 2 h
# [16] = 1 h, read-out: Rat hepatocytes IC50 (MMP)
# [17] = read-out: MMP assays IC50 (µM) Rat Hepatocytes
# [18] = 100 µM, glutamate/malate driven state 3 respiration, isolated rat liver mitochondria
# [19] = 100 µM, glutamate/malate driven state 4 respiration, isolated rat liver mitochondria
# [20] = 100 µM, succinate-driven state 3 respiration, isolated rat liver mitochondria
# [21] = 100 µM, succinate-driven state 4 respiration, isolated rat liver mitochondria
# [22] = mitochondrial respiration in isolated rat liver mitochondria, Clark type oxygen electrode, over tested concentrations
# [23] = HepG2, 16 h incubation, mean±SD of three experiments
# [24] = HepG2, 1 h, read-out: HepG2 IC50 Galactose (MMP)
# [25] = HepG2, 1 h, read-out: HepG2 IC50 Glucose (MMP)
# [26] = HepG2, read-out: MMP assays IC50 (µM) HepG2
# [27] = 5 mM glucose, 40 h treatment, mean±SD of three experiments
# [28] = 10 mM galactose, 40 h treatment, mean±SD of three experiments
# [29] = HepG2, 2 h treatment, mean±SD of three experiments
# [30] = 16 h incubation, mean±SD of three experiments
compound,measurement,setting,value
"O=C(O)c1cccnc1Nc1cccc(C(F)(F)F)c1 [Niflumic acid, reference compound]",MMP assays efficacy (%) qHTS-HepG2,HepG2 cells [1],-113±5%
same,IC50,HepG2 cells [1]; [14],13 ± 2.17 µM
same,effect on larval growth (in words),"[2]; 0.5–100μM, 48 h exposure",did not affect growth
same,IC50,hNSC,38.3 ± 4.41 µM
same,Parkin recruitment,[3]; [15],Inactive
same,Rat hepatocytes (efficacy) (MMP),rat primary hepatocytes [4],−98.8±9.27%
same,IC50,rat primary hepatocytes [4]; [16],19.9 ± 1.35 µM
same,IC50,rat primary hepatocytes [4]; [17],6.71 ± 1.14 µM
same,MMP assays efficacy (%) Rat Hepatocytes,rat primary hepatocytes [4],-127±56%
same,"I-ADP, % of control (O2 consumption rate)","[5]; 0.032 µM, glutamate/malate driven state 3 respiration, isolated rat liver mitochondria",91 (32.6) % of control
same,"I-sub, % of control (O2 consumption rate)","[5]; 0.032 µM, glutamate/malate driven state 4 respiration, isolated rat liver mitochondria",116 (11.1) % of control
same,"II-ADP, % of control (O2 consumption rate)","[5]; 0.032 µM, succinate-driven state 3 respiration, isolated rat liver mitochondria",90 (48.1) % of control
same,"II-sub, % of control (O2 consumption rate)","[5]; 0.032 µM, succinate-driven state 4 respiration, isolated rat liver mitochondria",110 (18.1) % of control
same,"I-ADP, % of control (O2 consumption rate)","[5]; 0.16 µM, glutamate/malate driven state 3 respiration, isolated rat liver mitochondria",82 (29.2) % of control
same,"I-sub, % of control (O2 consumption rate)","[5]; 0.16 µM, glutamate/malate driven state 4 respiration, isolated rat liver mitochondria",111 (10.7) % of control
same,"II-ADP, % of control (O2 consumption rate)","[5]; 0.16 µM, succinate-driven state 3 respiration, isolated rat liver mitochondria",101 (54.0) % of control
same,"II-sub, % of control (O2 consumption rate)","[5]; 0.16 µM, succinate-driven state 4 respiration, isolated rat liver mitochondria",124 (20.4) % of control
same,"I-ADP, % of control (O2 consumption rate)","[5]; 0.8 µM, glutamate/malate driven state 3 respiration, isolated rat liver mitochondria",91 (32.5) % of control
same,"I-sub, % of control (O2 consumption rate)","[5]; 0.8 µM, glutamate/malate driven state 4 respiration, isolated rat liver mitochondria",131 (12.6) % of control
same,"II-ADP, % of control (O2 consumption rate)","[5]; 0.8 µM, succinate-driven state 3 respiration, isolated rat liver mitochondria",89 (47.6) % of control
same,"II-sub, % of control (O2 consumption rate)","[5]; 0.8 µM, succinate-driven state 4 respiration, isolated rat liver mitochondria",135 (22.1) % of control
same,"I-ADP, % of control (O2 consumption rate)","[5]; 4 µM, glutamate/malate driven state 3 respiration, isolated rat liver mitochondria",86 (30.8) % of control
same,"I-sub, % of control (O2 consumption rate)","[5]; 4 µM, glutamate/malate driven state 4 respiration, isolated rat liver mitochondria",180 (17.3) % of control
same,"II-ADP, % of control (O2 consumption rate)","[5]; 4 µM, succinate-driven state 3 respiration, isolated rat liver mitochondria",96 (51.1) % of control
same,"II-sub, % of control (O2 consumption rate)","[5]; 4 µM, succinate-driven state 4 respiration, isolated rat liver mitochondria",221 (36.2) % of control
same,"I-ADP, % of control (O2 consumption rate)","[5]; 20 µM, glutamate/malate driven state 3 respiration, isolated rat liver mitochondria",101 (36.0) % of control
same,"I-sub, % of control (O2 consumption rate)","[5]; 20 µM, glutamate/malate driven state 4 respiration, isolated rat liver mitochondria",380 (36.5) % of control
same,"II-ADP, % of control (O2 consumption rate)","[5]; 20 µM, succinate-driven state 3 respiration, isolated rat liver mitochondria",54 (28.9) % of control
same,"II-sub, % of control (O2 consumption rate)","[5]; 20 µM, succinate-driven state 4 respiration, isolated rat liver mitochondria",195 (32.0) % of control
same,"I-ADP, % of control (O2 consumption rate)",[5]; [18],70 (32.1) % of control
same,"I-sub, % of control (O2 consumption rate)",[5]; [19],234 (36.2) % of control
same,"II-ADP, % of control (O2 consumption rate)",[5]; [20],23 (16.4) % of control
same,"II-sub, % of control (O2 consumption rate)",[5]; [21],56 (17.7) % of control
same,Potential Mechanism,[5]; [22],"Uncoupler at low concentrations (0.16-4 µM), and Uncoupler + inhibitor at high concentrations ( 20-100 µM)"
same,effect on ATP content (in words),"[6]; 0.5–100μM, 24 h exposure",statistically significant decreases in ATP content
same,minimal effective concentration,[6],100 µM
same,EC50,[7]; [23],25.1 ± 2.05 µM
same,IC50,HepG2 cells [8]; [24],42.8 µM
same,IC50,HepG2 cells [8]; [25],44.6 ± 3.02 µM
same,IC50,HepG2 cells [8]; [26],15.5 µM
same,Emax,HepG2 cells [8],114%
same,"ATP (HepG2, glucose) IC50",HepG2 cells [9]; [27],Inactive
same,"ATP (HepG2, galactose) IC50",HepG2 cells [9]; [28],Inactive
same,EC50,HepG2 cells [10]; [29],6.35 ± 2.16 µM
NNc1nc(-c2ccccc2)cs1 [2-Hydrazino-4-phenylthiazole],MMP assays efficacy (%) qHTS-HepG2,HepG2 cells [1],-118±14%
same,IC50,HepG2 cells [1]; read-out: MMP assays IC50 (µM) qHTS-HepG2,2.32 ± 0.79 µM
same,"LEC (lowest effect concentration), larval growth assay",[2]; 48 h exposure,≤ 10 µM
same,minimal effective concentration,"[2]; Caenorhabditis elegans, read-out: LEC EXT: lowest effect concentration for extinction, a measure of nematode size",10 µM
same,IC50,hNSC,14.2 ± 2.56 µM
same,Parkin recruitment,[3]; [15],Inactive
same,Rat hepatocytes (efficacy) (MMP),rat primary hepatocytes [4],−57.1±16.9%
same,IC50,rat primary hepatocytes [4]; [16],54.7 ± 21.1 µM
same,IC50,rat primary hepatocytes [4]; [17],21.5 ± 17.6 µM
same,MMP assays efficacy (%) Rat Hepatocytes,rat primary hepatocytes [4],-81±30%
same,"I-ADP, % of control (O2 consumption rate)",[5]; [18],94 (50.2) % of control
same,"I-sub, % of control (O2 consumption rate)",[5]; [19],119 (16.0) % of control
same,"II-ADP, % of control (O2 consumption rate)",[5]; [20],88 (59.2) % of control
same,"II-sub, % of control (O2 consumption rate)",[5]; [21],99 (21.4) % of control
same,Potential Mechanism,[5]; [22],Inactive
same,minimal effective concentration,[6],25 µM
same,EC50,[7]; [23],6.92 ± 1.73 µM
same,IC50,HepG2 cells [8]; [24],48.2 ± 17.5 µM
same,IC50,HepG2 cells [8]; [25],37.1 ± 6.33 µM
same,IC50,HepG2 cells [8]; [26],10 µM
same,Emax,HepG2 cells [8],103%
same,"ATP (HepG2, glucose) IC50",HepG2 cells [9]; [27],Inactive
same,"ATP (HepG2, galactose) IC50",HepG2 cells [9]; [28],Inactive
same,EC50,HepG2 cells [10]; [29],34.5 ± 28.8 µM
"Cc1cc(Cc2cc(C)cc(C(C)(C)C)c2O)c(O)c(C(C)(C)C)c1 [2,2′-Methylenebis(4-methyl-6-tert-butylphenol)]","LEC (lowest effect concentration), larval growth assay",[2]; 48 h exposure,≤ 10 µM
same,IC50,hNSC,0.88 ± 0.25 µM
same,Parkin recruitment,[3]; [15],Inactive
same,Rat hepatocytes (efficacy) (MMP),rat primary hepatocytes [4],−121±16.7%
same,IC50,rat primary hepatocytes [4]; [16],6.89 ± 1.44 µM
same,p53 (HCT-116) EC50,[11]; [30],Inactive
same,ARE (HepG2) EC50,[7]; [30],Inactive
same,IC50,HepG2 cells [8]; [24],6.6 ± 1.12 µM
same,IC50,HepG2 cells [8]; [25],5.67 ± 1.02 µM
same,IC50,"HepG2 cells [9]; 5 mM glucose, 40 h treatment, mean±SD of three experiments, read-out: ATP (HepG2, glucose) IC50",34.1 ± 3.93 µM
same,IC50,"HepG2 cells [9]; 10 mM galactose, 40 h treatment, mean±SD of three experiments, read-out: ATP (HepG2, galactose) IC50",34 µM
same,EC50,HepG2 cells [10]; [29],31.4 ± 10.1 µM
"CO[C@H]1/C=C/O[C@@]2(C)Oc3c(C)c(O)c4c(O)c(c(/C=N/N5CCN(C)CC5)c(O)c4c3C2=O)NC(=O)/C(C)=C\C=C\[C@H](C)[C@H](O)[C@@H](C)[C@@H](O)[C@@H](C)[C@H](OC(C)=O)[C@@H]1C [Rifampicin, reference compound]",MMP assays efficacy (%) qHTS-HepG2,HepG2 cells [1],-94±13%
same,IC50,HepG2 cells [1]; [14],25.1 ± 6.38 µM
same,HepG2 IC50 Galactose (MMP),HepG2 cells [12],Inactive
same,Parkin recruitment,[3],Inactive
same,IC50,rat primary hepatocytes [4]; [16],41.4 µM
same,IC50,rat primary hepatocytes [4]; [17],6.15 ± 2.2 µM
same,p53 (HCT-116) EC50,[11],Inactive
same,Potential Mechanism,[5],Inactive
same,"I-ADP, % of control (O2 consumption rate)",[5]; 4 µM,85 (46.4) % of control
same,"I-sub, % of control (O2 consumption rate)",[5]; 4 µM,89 (11.7) % of control
same,"II-ADP, % of control (O2 consumption rate)",[5]; 4 µM,95 (83.4) % of control
same,"II-sub, % of control (O2 consumption rate)",[5]; 4 µM,96 (23.5) % of control
same,"I-ADP, % of control (O2 consumption rate)",[5]; 20 µM,71 (39.1) % of control
same,"I-sub, % of control (O2 consumption rate)",[5]; 20 µM,86 (11.3) % of control
same,"II-ADP, % of control (O2 consumption rate)",[5]; 20 µM,95 (84.2) % of control
same,"II-sub, % of control (O2 consumption rate)",[5]; 20 µM,107 (26.2) % of control
same,MMP assays efficacy (%) Rat Hepatocytes,rat primary hepatocytes [13],-68±40%
same,Rat hepatocytes (efficacy) (MMP),rat primary hepatocytes [13],41.4±5.71 ( −97.5±6.10 ) %
same,EC50,"[7]; HepG2, 16 h",45.2 µM
same,IC50,HepG2 cells [8]; [25],63.2 µM
same,IC50,HepG2 cells [8]; [26],15.5 µM
same,Emax,HepG2 cells [8],85%
same,"ATP (HepG2, galactose) IC50",HepG2 cells [9],Inactive
same,"ATP (HepG2, glucose) IC50",HepG2 cells [9],Inactive
same,EC50,"HepG2 cells [10]; HepG2, 2 h",34.5 µM
